Assay results: US12558326B2, “Method for treating epilepsy” (Xenon Pharmaceuticals Inc., priority 2018, dated 2026)

Test system: DBA/2 mice
Experiment: Audiogenic seizure test in DBA/2 mice
Assay type: in vivo, mouse
Settings: for Clonic Convulsion Incidence / Tonic Extension Incidence / Wild Running Incidence / Clonic Convulsion Latency / Tonic Extension Latency / Wild Running Latency / Audiogenic Response Score: 60 min prior; for Clonic Convulsion Incidence / Tonic Extension Incidence / Wild Running Incidence / Audiogenic Response Score: n=10; for Clonic Convulsion Latency / Tonic Extension Latency / Wild Running Latency / Audiogenic Response Score: mean ± SEM; for Clonic Convulsion Latency / Tonic Extension Latency / Wild Running Latency: maximum 60 s; for Audiogenic Response Score: score 0-4; for change in number of mice showing clonic convulsions / change in number of mice showing tonic convulsions / increase in latency to clonic convulsions / increase in latency to tonic convulsions / reduction of overall audiogenic response score: versus vehicle controls; for anticonvulsant activity in the audiogenic seizure test: (R/S)-fenfluramine at 15 and 30 mg/kg, (R)-fenfluramine at 30 mg/kg
Method: DBA/2 is a widely used inbred strain of mouse susceptible to audiogenic seizures due to the asp2 mutation. […] The objective of this study was to evaluate the anticonvulsant activity of (R/S)-fenfluramine and to compare it to (R)-fenfluramine in the DBA/2 mouse.
The method follows that described by Dilrmuiller et al., Neuroreport 4(6):683-686. Mice (DBA/2, 3-4 weeks old) were individually transferred (at 3-5 minute intervals) from the preparation room into an adjacent experimental room and placed in a Plexiglas™ jar (Diameter=40 cm; Height=35 cm) mounted with an electric bell (110-120 dB). Upon activating the bell, the occurrences and latencies to wild running fits, clonic and tonic seizures were measured. The number of deaths was also recorded. An audiogenic response score was assigned to each mouse as 0 (no seizure), 1 (wild running), 2 (clonic convulsion), 3 (tonic extension), or 4 (death). The bell was activated until a tonic seizure occurred or for a maximum of 60 seconds. Ten (10) mice were studied per group. The test was performed blind. All test compounds were dissolved in 0.9% saline (vehicle) and were administered by intraperitoneal (IP) injection at a dose volume of 10 mL/kg. Vehicle alone, (R/S)-fenfluramine (15 or 30 mg/kg) or (R)-fenfluramine (30 mg/kg) were administered 60 minutes prior to seizure induction. The positive reference compound (valproate; 180 mg/kg) was administered 30 minutes prior to seizure induction.

CCNC(C)Cc1cccc(C(F)(F)F)c1 (racemic) [(rac)-fenfluramine, (R/S)—N-ethyl-1-(3-(trifluoromethyl)phenyl)propan-2-amine]
Clonic Convulsion Incidence (15 mg/kg IP): 60% | Tonic Extension Incidence (15 mg/kg IP): 0% | Wild Running Incidence (15 mg/kg IP): 100% | Clonic Convulsion Latency (15 mg/kg IP): 31.4 ± 7.8 s | Tonic Extension Latency (15 mg/kg IP): 60.0 ± 0.0 s | Wild Running Latency (15 mg/kg IP): 4.0 ± 0.7 s | Audiogenic Response Score (15 mg/kg IP): 1.6 ± 0.16 | change in number of mice showing clonic convulsions (15 mg/kg IP): −40% | change in number of mice showing tonic convulsions (15 mg/kg IP): −100% | increase in latency to clonic convulsions (15 mg/kg IP): +441% | increase in latency to tonic convulsions (15 mg/kg IP): +641% | reduction of overall audiogenic response score (15 mg/kg IP): 50% | Clonic Convulsion Incidence (30 mg/kg IP): 10% | Tonic Extension Incidence (30 mg/kg IP): 0% | Wild Running Incidence (30 mg/kg IP): 80% | Clonic Convulsion Latency (30 mg/kg IP): 55.3 ± 4.8 s | Tonic Extension Latency (30 mg/kg IP): 60.0 ± 0.0 s | Wild Running Latency (30 mg/kg IP): 16.6 ± 7.4 s | Audiogenic Response Score (30 mg/kg IP): 0.9 ± 0.18 | change in number of mice showing clonic convulsions (30 mg/kg IP): −90% | change in number of mice showing tonic convulsions (30 mg/kg IP): −100% | increase in latency to clonic convulsions (30 mg/kg IP): +853% | increase in latency to tonic convulsions (30 mg/kg IP): +641% | reduction of overall audiogenic response score (30 mg/kg IP): 72% | anticonvulsant activity in the audiogenic seizure test: clear anticonvulsant activity

CCN[C@H](C)Cc1cccc(C(F)(F)F)c1 [(R)-fenfluramine, (R)—N-ethyl-1-(3-(trifluoromethyl)phenyl)propan-2-amine]
Clonic Convulsion Incidence (30 mg/kg IP): 60% | Tonic Extension Incidence (30 mg/kg IP): 0% | Wild Running Incidence (30 mg/kg IP): 100% | Clonic Convulsion Latency (30 mg/kg IP): 31.9 ± 7.7 s | Tonic Extension Latency (30 mg/kg IP): 60.0 ± 0.0 s | Wild Running Latency (30 mg/kg IP): 5.0 ± 1.4 s | Audiogenic Response Score (30 mg/kg IP): 1.6 ± 0.16 | change in number of mice showing clonic convulsions (30 mg/kg IP): −40% | change in number of mice showing tonic convulsions (30 mg/kg IP): −100% | increase in latency to clonic convulsions (30 mg/kg IP): +450% | increase in latency to tonic convulsions (30 mg/kg IP): +641% | reduction of overall audiogenic response score (30 mg/kg IP): 50% | anticonvulsant activity in the audiogenic seizure test: clear anticonvulsant activity
